Source: patent US9163008B2, “Pyrimidines as sodium channel blockers” (Purdue Pharma, L.P., priority 2011, dated 2015)
pIC50, pKd, pKi: −log10 of the molar value.

Tests used:
[1] = test system: SNL-induced mechanical hyperalgesia; assay: SNL-induced mechanical hyperalgesia model (paw pressure test); format: in vivo, rat; settings: rats, dosed orally at 100 mg/kg, vehicle 0.5% methyl cellulose, one hour before testing
Procedure: In the Chung model, the spinal nerve ligation (SNL) model of neuropathic pain is used to produce mechanical hyperalgesia, thermal hyperalgesia, and tactile allodynia in rats. Surgery is performed under isoflurane/O2 inhalation anesthesia. Following induction of anesthesia a 3 cm incision is made and the left paraspinal muscles are separated from the spinous process at the L4-S2 levels. The L6 transverse process is carefully removed with a pair of small rongeurs to identify visually the L4-L6 spinal nerves. The left L5 (or L5 and L6) spinal nerve(s) is (are) isolated and tightly ligated with silk thread. […] The animals can also be assessed for response to noxious thermal stimuli or for tactile allodynia, as described below. […] Sensitivity to noxious mechanical stimuli was measured in animals using the paw pressure test to assess mechanical hyperalgesia. In rats, hind paw withdrawal thresholds (“PWT”), measured in grams, in response to a noxious mechanical stimulus were determined using an analgesymeter (Model 7200, commercially available from Ugo Basile of Italy), as described in Stein (Biochemistry & Behavior 31: 451-455 (1988)). […] PWT was determined once for each rat at each time point. PWT can be measured only in the injured paw, or in both the injured and non-injured paw. […]

human Nav1.7 = human Nav1.7 (Homo sapiens (Human), UniProt Q15858); assay: FLIPR sodium dye assay (CoroNa Green) with KCl and test article pre-incubation; format: cell-based; settings: read-out: Nav1.7 Activity FLIPR assay IC50
hNav1.7 = hNav1.7 (Homo sapiens (Human), UniProt Q15858); assay: Electrophysiology (EP) whole-cell patch clamp assay; format: cell-based; settings: hNav1.7 HEK-293
Procedure: The hNav1.7 expressing HEK-293 cells were plated on 35 mm culture dishes pre-coated with poly-D-lysine in standard DMEM culture media (Mediatech, Inc., Herndon, Va.) and incubated in a 5% CO2 incubator at 37° C. Cultured cells were used approximately 12-48 h after plating.
On the day of experimentation, the 35 mm dish was placed on the stage of an inverted microscope equipped with a perfusion system that continuously perfuses the culture dish with fresh recording media. A gravity driven superfusion system was used to apply test solutions directly to the cell under evaluation. This system consists of an array of glass pipette glass connected to a motorized horizontal translator. The outlet of the shooter was positioned approximately 100 μm from the cell of interest.
Gigaseals were formed and the whole-cell configuration was established in voltage clamp mode, and membrane currents generated by hNav1.7 were recorded in gap-free mode. […] Signals were sampled at 50 kHz and low pass filtered at 3 kHz.
To determine a membrane potential at which the majority of channels are in the resting state, a standard steady-state inactivation (SSIN) protocol was run using 100 ms prepulses×10 mV depolarizing steps. The holding potential for testing resting block (Vh1) was 20 mV more hyperpolarized than the first potential where inactivation is observed with the inactivation protocol.
From this holding potential a standard I-V protocol was run to determine the potential at which the maximal current (Imax) was elicited. This potential was the test potential (Vt).
The fractional response was calculated as follows: FR=I(after drug)/I(control),
where I is the peak current amplitude and was used for estimating resting block dissociation constant, Kr: Kr=[drug]*{FR/(1−FR)},
To assess the block of inactivated channels the holding potential was depolarized such that 20-50% of the current amplitude was reduced when pulsed to the same Vt as above. The magnitude of this depolarization depends upon the initial current amplitude and the rate of current loss due to slow inactivation. This was the second holding potential (Vh2). The current reduction was recorded to determine the fraction of available channels at this potential (h). h=I@Vh2/Imax.
At this membrane voltage a proportion of channels are in the inactivated state, and thus inhibition by a blocker includes interaction with both resting and inactivated channels.
To determine the potency of the test compound on inactivated channels, a series of currents were elicited by 10 ms voltage steps from Vh2 to Vt every 10-15 seconds. After establishing a stable baseline, the low concentration of the compound was applied. Multiple cumulative concentrations may have to be applied to identify a concentration that will block between 40-60% of the current. Washout was attempted to re-establish baseline. Fractional responses were measured with respect to a projected baseline to determine Kapp. Kapp=[drug]*{FR/(1−FR)},
This Kapp value, along with the calculated Kr and h values, were used to calculate the affinity of the compound for the inactivated channels (Ki) using the following equation: Ki=(1−h)/((1/Kapp)−(h/Kr)).
Vehicle solution used to establish base line was also contacting 0.3% DMSO.
Data was analyzed off-line using Clampfit software (pClamp, v. 8; Axon Instruments) and graphed using GraphPad Prizm (v. 4.0 or higher) software.

hNav1.7, sequence (Q15858 other isoform, or with tags, fused parts or gaps): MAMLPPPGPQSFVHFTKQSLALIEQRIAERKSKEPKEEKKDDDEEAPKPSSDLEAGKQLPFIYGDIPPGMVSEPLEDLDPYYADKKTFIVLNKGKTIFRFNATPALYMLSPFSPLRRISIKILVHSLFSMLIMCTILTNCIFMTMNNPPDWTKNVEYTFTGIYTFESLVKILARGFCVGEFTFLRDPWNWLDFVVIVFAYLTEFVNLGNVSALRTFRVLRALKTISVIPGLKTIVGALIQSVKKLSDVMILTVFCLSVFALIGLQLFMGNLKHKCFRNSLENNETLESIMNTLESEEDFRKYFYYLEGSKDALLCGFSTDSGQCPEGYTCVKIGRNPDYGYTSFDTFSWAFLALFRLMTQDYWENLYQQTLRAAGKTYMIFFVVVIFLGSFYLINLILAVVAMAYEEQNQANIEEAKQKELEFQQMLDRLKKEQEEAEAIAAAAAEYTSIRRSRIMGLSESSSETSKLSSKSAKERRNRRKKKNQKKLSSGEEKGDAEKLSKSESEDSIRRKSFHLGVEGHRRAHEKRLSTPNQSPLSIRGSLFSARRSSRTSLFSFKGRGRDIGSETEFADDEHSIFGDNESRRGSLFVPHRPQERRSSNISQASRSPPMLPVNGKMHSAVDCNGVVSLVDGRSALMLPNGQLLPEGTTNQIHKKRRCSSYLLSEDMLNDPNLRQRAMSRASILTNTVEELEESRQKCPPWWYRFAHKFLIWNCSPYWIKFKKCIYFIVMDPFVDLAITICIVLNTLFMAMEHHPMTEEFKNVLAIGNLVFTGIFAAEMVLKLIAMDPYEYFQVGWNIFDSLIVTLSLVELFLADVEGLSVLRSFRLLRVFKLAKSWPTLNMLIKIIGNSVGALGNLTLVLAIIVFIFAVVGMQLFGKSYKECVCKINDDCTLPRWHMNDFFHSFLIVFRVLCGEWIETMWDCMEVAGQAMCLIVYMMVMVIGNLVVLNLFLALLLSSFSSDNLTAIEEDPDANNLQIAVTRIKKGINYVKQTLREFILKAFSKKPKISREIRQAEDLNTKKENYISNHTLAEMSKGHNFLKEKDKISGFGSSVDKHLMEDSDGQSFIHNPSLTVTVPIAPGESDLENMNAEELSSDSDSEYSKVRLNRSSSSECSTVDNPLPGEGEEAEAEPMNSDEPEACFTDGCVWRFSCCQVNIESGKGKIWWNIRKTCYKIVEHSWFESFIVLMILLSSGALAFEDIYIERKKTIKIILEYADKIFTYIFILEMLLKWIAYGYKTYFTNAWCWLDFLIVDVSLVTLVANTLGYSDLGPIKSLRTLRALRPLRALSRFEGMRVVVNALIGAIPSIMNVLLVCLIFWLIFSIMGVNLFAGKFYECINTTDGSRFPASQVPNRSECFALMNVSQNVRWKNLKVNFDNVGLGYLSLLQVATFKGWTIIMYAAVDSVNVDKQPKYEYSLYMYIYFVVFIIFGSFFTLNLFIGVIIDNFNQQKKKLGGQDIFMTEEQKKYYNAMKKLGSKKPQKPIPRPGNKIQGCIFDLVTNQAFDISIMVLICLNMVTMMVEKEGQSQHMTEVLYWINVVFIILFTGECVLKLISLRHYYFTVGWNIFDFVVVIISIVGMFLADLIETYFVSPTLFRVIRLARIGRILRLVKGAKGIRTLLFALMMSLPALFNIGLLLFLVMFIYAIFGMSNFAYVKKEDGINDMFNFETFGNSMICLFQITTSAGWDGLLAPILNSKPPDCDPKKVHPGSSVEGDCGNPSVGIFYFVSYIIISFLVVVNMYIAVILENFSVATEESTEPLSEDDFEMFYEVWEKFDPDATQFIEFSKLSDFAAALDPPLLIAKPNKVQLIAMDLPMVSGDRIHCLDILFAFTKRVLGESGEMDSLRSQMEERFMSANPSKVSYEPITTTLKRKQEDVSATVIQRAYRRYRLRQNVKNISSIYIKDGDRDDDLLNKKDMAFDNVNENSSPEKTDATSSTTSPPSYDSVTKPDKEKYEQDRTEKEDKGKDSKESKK
human Nav1.7, sequence (Q15858 other isoform, or with tags, fused parts or gaps): as above

| SMILES | SNL-induced mechanical hyperalgesia (paw withdrawal threshold) [1] | pIC50 (human Nav1.7) | pKi (hNav1.7; affinity for inactivated channels, read-out: Nav1.7 Activity EP assay Ki) | pKd (hNav1.7; resting block dissociation constant, read-out: Nav1.7 Activity EP assay Kr) |
| --- | --- | --- | --- | --- |
| C[C@H](Nc1cc(C(N)=O)nc(-c2ccc(Oc3ccc(OC(F)(F)F)cc3)cc2)n1)C(N)=O [Cpd No. 84, (S)-6-((1-amino-1-oxopropan-2-yl)amino)-2-(4-(4-(trifluoromethoxy)phenoxy)phenyl)pyrimidine-4-carboxamide] | reduced SNL-induced mechanical hyperalgesia |  |  |  |
| NC(=O)c1cc(N[C@H]2CCNC2=O)nc(-c2ccc(Oc3ccc(C(F)(F)F)cn3)cc2)n1 [compound 99, (S)-6-((2-oxopyrrolidin-3-yl)amino)-2-(4-((5-(trifluoromethyl)pyridin-2-yl)oxy)phenyl)pyrimidine-4-carboxamide] | reduced SNL-induced mechanical hyperalgesia | 6.24 | 7.08 | 5.33 |
